Measured values from BigSolDB 2.1.

Q: What does the source list for `O=C(O)[C@H]1O[C@@H](Oc2cc3oc(-c4ccccc4)cc(=O)c3c(O)c2O)[C@H](O)[C@@H](O)[C@@H]1O`?
A: solubility (mole fraction) (in ethanol, 278.15 K): 0.000171; solubility (mole fraction) (in ethanol, 283.15 K): 0.000176; solubility (mole fraction) (in ethanol, 288.15 K): 0.000181; solubility (mole fraction) (in ethanol, 293.15 K): 0.000186; solubility (mole fraction) (in ethanol, 298.15 K): 0.000191; solubility (mole fraction) (in ethanol, 303.15 K): 0.000196; solubility (mole fraction) (in ethanol, 308.15 K): 0.000202; solubility (mole fraction) (in ethanol, 313.15 K): 0.000205; solubility (mole fraction) (in ethanol, 318.15 K): 0.000212; solubility (mole fraction) (in isopropanol, 278.15 K): 0.000676; solubility (mole fraction) (in isopropanol, 283.15 K): 0.000855; solubility (mole fraction) (in isopropanol, 288.15 K): 0.00112; solubility (mole fraction) (in isopropanol, 293.15 K): 0.00145; solubility (mole fraction) (in isopropanol, 298.15 K): 0.00191; solubility (mole fraction) (in isopropanol, 303.15 K): 0.00246; solubility (mole fraction) (in isopropanol, 308.15 K): 0.00314; solubility (mole fraction) (in isopropanol, 313.15 K): 0.00392; solubility (mole fraction) (in isopropanol, 318.15 K): 0.00472; solubility (mole fraction) (in methanol, 278.15 K): 8.11e-05; solubility (mole fraction) (in methanol, 283.15 K): 9.11e-05; solubility (mole fraction) (in methanol, 288.15 K): 0.000101; solubility (mole fraction) (in methanol, 293.15 K): 0.000113; solubility (mole fraction) (in methanol, 298.15 K): 0.000127; solubility (mole fraction) (in methanol, 303.15 K): 0.000143; solubility (mole fraction) (in methanol, 308.15 K): 0.000157; solubility (mole fraction) (in methanol, 313.15 K): 0.000171; solubility (mole fraction) (in methanol, 318.15 K): 0.000192; solubility (mole fraction) (in n-propanol, 278.15 K): 0.000768; solubility (mole fraction) (in n-propanol, 283.15 K): 0.00101; solubility (mole fraction) (in n-propanol, 288.15 K): 0.00133; solubility (mole fraction) (in n-propanol, 293.15 K): 0.00171; solubility (mole fraction) (in n-propanol, 298.15 K): 0.00224; solubility (mole fraction) (in n-propanol, 303.15 K): 0.00289; solubility (mole fraction) (in n-propanol, 308.15 K): 0.00363; solubility (mole fraction) (in n-propanol, 313.15 K): 0.00451; solubility (mole fraction) (in n-propanol, 318.15 K): 0.00551; solubility (mole fraction) (in water, 278.15 K): 2.38e-06; solubility (mole fraction) (in water, 283.15 K): 3.13e-06; solubility (mole fraction) (in water, 288.15 K): 4.35e-06; solubility (mole fraction) (in water, 293.15 K): 5.8e-06; solubility (mole fraction) (in water, 298.15 K): 7.49e-06; solubility (mole fraction) (in water, 303.15 K): 9.78e-06; solubility (mole fraction) (in water, 308.15 K): 1.27e-05; solubility (mole fraction) (in water, 313.15 K): 1.59e-05; solubility (mole fraction) (in water, 318.15 K): 2.03e-05
